Reference: publication PMC9830933 (European Journal of Medicinal Chemistry, 2023)

Experiments:
[1] = Aqueous solubility; assay type: physicochemical
[2] = system: MHV-A59; experiment: In vitro anti-MHV-A59 activity assay in L929 cells; assay type: cell-based, murine coronavirus mouse hepatitis virus A-59; conditions: for potency relative to GS-441524 (MHV-A59 EC50), fold more potent: vs GS-441524 EC50 = 10.01 μM; for effect on cellular replication of MHV-A59 (in words): up to 200 μM
[3] = system: MHV-A59; experiment: Mouse MHV efficacy study; assay type: in vivo, BALB/c mice; conditions: for viral titers (MHV-A59 RNA copies) in the liver (in words): mouse, in vivo
[4] = system: FCoV; conditions: intraperitoneal injection, FCoV-afflicted cats; cited from earlier work
[5] = ATV041 10, 50, 200 mg/kg oral QD, 3 dpi

For `CC(C(=O)OC[C@H]1O[C@@](C#N)(c2ccc3c(N)ncnn23)[C@H](O)[C@@H]1O)c1cccc(Oc2ccccc2)c1` (stereo partly drawn) [ATV038, ((2R,3S,4R,5R)-5-(4-aminopyrrolo[2,1-f][1,2,4]triazin-7-yl)-5-cyano-3,4-dihydroxytetrahydrofuran-2-yl)methyl 2-(3-phenoxyphenyl)propanoate], the “aqueous solubility (in words)” value [1] was “slightly better solubility” and the “potency relative to GS-441524 (MHV-A59 EC50), fold more potent” value [2] was “about 8 fold”.
For `CC(C(=O)OC[C@H]1O[C@@](C#N)(c2ccc3c(N)ncnn23)[C@H](O)[C@@H]1O)c1cccc(C(=O)c2ccccc2)c1` (stereo partly drawn) [ATV040, ((2R,3S,4R,5R)-5-(4-aminopyrrolo[2,1-f][1,2,4]triazin-7-yl)-5-cyano-3,4-dihydroxytetrahydrofuran-2-yl)methyl 2-(3-benzoylphenyl)propanoate], the “aqueous solubility (in words)” value [1] was “significantly improved the solubility”.
With `COc1ccc2cc([C@H](C)C(=O)OC[C@H]3O[C@@](C#N)(c4ccc5c(N)ncnn45)[C@H](O)[C@@H]3O)ccc2c1` [ATV039, ((2R,3S,4R,5R)-5-(4-aminopyrrolo[2,1-f][1,2,4]triazin-7-yl)-5-cyano-3,4-dihydroxytetrahydrofuran-2-yl)methyl (S)-2-(6-methoxynaphthalen-2-yl)propanoate] the “aqueous solubility (in words)” value [1] was “slightly better solubility”.
With `CC(C)Cc1ccc(C(C)C(=O)O)cc1` (centres unmarked) [Ibuprofen, reference compound] the “antiviral effect in lung and liver (in words)” value ([3]; ibuprofen 70 mg/kg oral QD dosed alone, 3 dpi) was “did not show an antiviral effect”, the “effect on cellular replication of MHV-A59 (in words)” value ([2]; Fig. S1) was “did not affect” and the “effect on cellular replication of MHV-A59 (in words)” value ([2]; Fig. S1, listed as ibuprofen) was “did not inhibit”.
For `COc1ccc2c(c1)c(CC(=O)OC[C@H]1O[C@@](C#N)(c3ccc4c(N)ncnn34)[C@H](O)[C@@H]1O)c(C)n2C(=O)c1ccc(Cl)cc1` [ATV043, ((2R,3S,4R,5R)-5-(4-aminopyrrolo[2,1-f][1,2,4]triazin-7-yl)-5-cyano-3,4-dihydroxytetrahydrofuran-2-yl)methyl 2-(1-(4-chlorobenzoyl)-5-methoxy-2-methyl-1H-indol-3-yl)acetate], the “aqueous solubility (in words)” value [1] was “hardly soluble”.
In the case of `N#C[C@@]1(c2ccc3c(N)ncnn23)O[C@H](CO)[C@@H](O)[C@H]1O` [GS-441524, 1′-CN-4-aza-7,9-dideazaadenosine C-nucleoside, reference compound], the “viral titer / viral replication in the lungs (in words)” value ([3]; 100 mg/kg GS-441524 (B1) or 200 mg/kg ATV041 (C3), same molar concentration, oral QD, 3 dpi) is reported as “about one order of magnitude”, the “lung histopathology (H&E) (in words)” value ([3]; 3 dpi) is reported as “did not demonstrate protect effects” and the “viral titers (MHV-A59 RNA copies) in the liver (in words)” value [3] is reported as “below the detection limit”. For the same compound, the cure rate [4] was “up to 96%”.
For `N#C[C@@]1(c2ccc3c(N)ncnn23)O[C@H](COC(=O)Cc2ccccc2Nc2c(Cl)cccc2Cl)[C@@H](O)[C@H]1O` [ATV042, ((2R,3S,4R,5R)-5-(4-aminopyrrolo[2,1-f][1,2,4]triazin-7-yl)-5-cyano-3,4-dihydroxytetrahydrofuran-2-yl)methyl 2-(2-((2,6-dichlorophenyl)amino)phenyl)acetate], the “aqueous solubility (in words)” value [1] was “hardly soluble”.
For `CC(C)Cc1ccc(C(C)C(=O)OC[C@H]2O[C@@](C#N)(c3ccc4c(N)ncnn34)[C@H](O)[C@@H]2O)cc1` (stereo partly drawn) [ATV041, ((2R,3S,4R,5R)-5-(4-aminopyrrolo[2,1-f][1,2,4]triazin-7-yl)-5-cyano-3,4-dihydroxytetrahydrofuran-2-yl)methyl 2-(4-isobutylphenyl)propanoate], the survival rate ([3]; 10 mg/kg oral QD, 23-day observation) was 100%, the “pro-inflammatory factors in the lungs (in words)” value ([3]; 200 mg/kg oral QD, 3 dpi) was “considerably reduced to a level similar to the mock-infected mice” and the “liver histopathology (H&E) (in words)” value ([3]; 3 dpi) was “obvious remission effects”. For the same compound, the “lung histopathology (H&E) (in words)” value ([3]; 3 dpi) was “alleviated symptoms”, the “dose dependence of inhibition of viral replication in the liver (in words)” value [3, 5] was “dose-dependently inhibited” and the “dose dependence of inhibition of viral replication in the lungs (in words)” value [3, 5] was “dose-dependent inhibition”. For the same compound, the “viral titers (MHV-A59 RNA copies) in the liver (in words)” value [3] was “below the detection limit”, the “plasma ALT and AST (in words)” value ([3]; serum chemical analysis, 3 dpi) was “significantly reduced” and the “aqueous solubility (in words)” value [1] was “slightly better solubility”. For the same compound, the “potency relative to GS-441524 (MHV-A59 EC50), fold more potent” value [2] was “about 8 fold”.
